Values joined by “and” are separate entries in the source; they are usually repeats but may differ in a detail not shown here. Equal entries are not always repeated.
Tests used:
[1] = baboon C63, 200 mg/kg CyP over 4 days from day 20, day relative to first PRBC injection
Description: The dose of CyP was chosen because it largely eliminates the mature immune system, leading to a major reduction in antibody and autoantibody levels, while leaving hematopoietic precursors intact.

[2] = test system: anti-carbohydrate antibodies of baboon serums; assay: Glycan array screening of baboon serums (406 glycans); type: binding, baboons (Papio anubis); conditions: for average±S.D. level of antibodies: before transplant/PRBC, animals without anti-Gal removal (A15, A14) or sampled before GAS914 (C63); for change of anti-carbohydrate antibodies after PRBC exposure: animal E19
Description: Heterotopic pig heart and kidney were placed in the abdominal cavity of baboons as previously described (Schmoeckel M et al. 1998 Transplantation 65:1570-1577; Cozzi E et al. 1997 Transplantation. 64:1383-1392). Blood samples for anti-carbohydrate antibody analysis were obtained from each animal before transplantation and at acute humoral xenotransplant rejection (AHXR).
Three animals (D29, E19 and E7) were exposed to weekly injections of 5 cubic centimeters (cc) of PRBC three times and blood samples for anti-carbohydrate antibodies were analysed one week after last injection. Another animal received 7 daily injections of 5 cc of PRBC (C63), until an augment of the level of anti-pig hemolytic antibodies (APHA) was observed, and blood samples were analysed at days 2, 20 and 30 relative to the first PRBC injection.
The carbohydrate-binding specificity of baboon serums obtained before and after pig organ xenotransplantation or PRBC exposure was investigated on glycan array v4.1 comprised of 406 glycans (Consortium for Functional Glycomics, Protein-Glycan Interaction Core-H) (http://www.functionalglycomics.org). Two different studies were performed: Consortium for Functional Glycomics projects #1313 and #1577. Pre and post-immunization samples from each animal were analysed in the same glycoarray study with exception of C63 day 20, which was performed in study #1577 whilst the other samples from this animal were analysed in study #1313. In order to assess the potential effect of a different glycoarray study, a linear mixed model with repeated measures was fitted for each carbohydrate, with its log expression as dependent variable and type of sample (pre or post-immunization) and the study (#1313 or #1577) as independent variables.

[3] = test system: anti-HA antibodies in human serum; assay: Specific ELISA for HA oligosaccharides, human serum; type: binding
Description: (§1) The enzyme-linked immunosorbent assay (ELISA) plates were coated with HA oligosaccharides (disaccharide, tetrasaccharide and decasaccharide) conjugated with polyacrylamide, obtained from Shemyakin-Ovchinnikov Institute of Biorganic Chemistry, Russian Academy of Science (Moscow, Russia). The disaccharide form was synthesized in this institution, whilst the tetrasaccharide and decasaccharide molecules were obtained from Sigma, Spain, and bound to polyacrylamide in this center. The protocol for determination of anti-HA antibodies was based in previously described ELISAs to determine other anti-carbohydrate antibodies with minimal modifications (Mañez R et al. 2001 Xenotransplantation 8: 15-23; Obukhova P et al. 2007 Xenotransplantation 14: 627-635).
Humans also have preformed antibodies against HA disaccharide (von Gunten S et al. 2009 J Allergy Clin Immunol 123: 1268-1276; Huflejt M E et al. 2009 Mol Immunol 46: 3037-3049). Thus, we used human serums randomly selected to investigate by specific ELISAS, the presence of preformed antibodies against HA disaccharide, tetrasaccharide and decasacchride. Also, antibodies against HA oligosaccharides were investigated in rats immunized either with PRBC and hamster blood following two protocols to generate mainly IgM or IgG antibodies.
The inventors analyzed the level of anti-HA disaccharide antibodies by specific ELISA in patients with SLE and anti-DNA antibodies (Group A; n=17), SLE without anti-DNA antibodies (Group B; n=10) and controls from blood bank (Group C; n=13). The values for IgM anti-HA disaccharide antibodies were (mean±S.E.) 0.58±0.07 in Group A, 0.71±0.13 in Group B, and 0.74±0.11 in Group C, with p=0.1 in ANOVA comparing Group A with Groups B or C. For IgG, the values were 0.37±0.08 in Group A, 0.27±0.05 in Group B, 0.27±0.03 in Group C, with a p=0.3 in ANOVA comparing Group A with Groups B or C.

[4] = test system: anti-HA antibodies in rat serum; assay: Specific ELISA for HA oligosaccharides, rats immunized with PRBC or hamster blood; type: binding; conditions: for level of preformed antibodies in rats compared to humans: rats before exposure; for level of preformed antibodies in rats compared to humans / production of IgM antibodies: FIG. 6; for production of IgM antibodies / production of IgG antibodies: rats; for production of IgM antibodies: three injections of PRBC or hamster blood every other day; for production of IgG antibodies: three injections of PRBC or hamster blood every other week, FIGS. 7 and 8
Description: Rats were immunized either with PRBC and hamster blood following two protocols to produce mainly IgM or IgG anti-carbohydrate antibodies. Three injections of 1 ml every other day (days 0, 2 and 4) and drawn of blood sample on day 5 was used to investigate IgM antibodies, and three injections every two weeks times 3, with blood obtained 12 days after last injection was used to investigate IgG antibodies.
as §1

[5] = test system: hyaluronan (HA antigens) in pig xenograft tissue; assay: Immunohistochemistry of IgM and IgG deposits in xenografts at AHXR with hyaluronidase pre-treatment; design: species or system pig xenograft in baboon
Description: In all the transplants an open xenograft biopsy was obtained 30 minutes after reperfusion, as well as at autopsy after AHXR. Tissue samples were fixed in 10% buffered formalin for at least 24 hours, dehydrated, and embedded in paraffin. Sections of 4 μm thickness were stained with hematoxylin and eosin Immunohistochemical examinations for IgG and IgM were performed in paraffin-embedded material. After inhibition of endogenous alkaline phosphatase with levamisol for 10 minutes, samples were incubated with goat anti-human IgG and IgM alkaline phosphatase conjugated (Sigma-Aldrich) for 30 minutes at 1:50 dilution. Tissue samples where then incubated with the EnVision™ G|2, Rabbit/Mouse (LINK) (Dako) following product recommendations. This reagent is a dextran polymer, which also carries antibodies to rabbit and mouse immunoglobulins. Finally, an alkaline phosphatase-labelled amplification polymer is added. The reaction is visualized by Permanent Red Chromogen also included in the kit. To investigate the potential role of hyaluronan as antigen some tissue sections were pre-treated with 50 u/mL of Streptomyces hyaluronidase (Sigma-Aldrich) for two hours at 37° C., which unlike other hyaluronidases is specific for hyaluronan.
To investigate the potential impact of HA antigens in AHXR, the presence of IgM and IgG deposits in tissue samples was investigated with and without previous incubation with Streptomyces hyaluronidase, which is specific for HA.

[6] = test system: human endothelial cells (HMEC); assay: Flow cytometry of non-human primate antibody binding to HMEC pre-treated with hyaluronidase; type: cell-based
Description: The authors have previously shown that immunization of non-human primates with pig blood is associated with the generation of xenoantibodies cross-reactive to human endothelial cells. To investigate whether HA antigens were involved in this reactivity, human endothelial cells (HMEC) were pre-treated with 20 Um′ of hyaluronidase from Streptomyces, which is specific for HA, for one hour. This hyaluronidase cleaves HA in fragments of 4 and 6 saccharides (tetra- and hexasaccharides). […] To show the effect of hyaluronidase pre-treatment in HA on HMEC cells, a hyaluronan-binding-protein (HABP), which binds to large molecular weight HA, was used as control (FIG. 9C).

[7] = animal D17, kidney xenotransplantation
[8] = randomly selected human serums, FIG. 5
[9] = Group A: SLE and anti-DNA antibodies, n=17
[10] = Group B: SLE without anti-DNA antibodies, n=10
[11] = Group C: controls from blood bank, n=13
[12] = hyaluronidase pre-treatment 20 Um′, one hour, serum of primates immunized with pig blood

O=P1(N(CCCl)CCCl)NCCCO1 (stereo not drawn) [CyP, cyclophosphamide]
day of death because of side effects from CyP treatment [1]: 31 days and 30 days

CC(=O)N[C@H]1C(O)O[C@H](CO)[C@@H](O[C@@H]2O[C@H](CO)[C@H](O)[C@H](O[C@H]3O[C@H](CO)[C@H](O)[C@H](O)[C@H]3O)[C@H]2O)[C@@H]1O (stereo partly drawn) [Gal, Galα1-3Galβ1-4GlcNAc, reference compound]
average±S.D. level of antibodies [2]: 3865±2892 net fluorescence units (NFU)

C[C@@H]1O[C@@H](OCCCN)[C@H](O)[C@H](O)[C@H]1O [Glycan 11, Rha-Sp8, reference compound]
change of anti-carbohydrate antibody reactivity at AHXR vs before transplantation [2, 7]: augmented

CC(=O)N[C@H]1[C@H]([C@H](O)[C@H](O)CO)O[C@](OCCCN)(C(=O)O)C[C@@H]1O [Glycan 14, Neu5Acβ-Sp8, reference compound]
change of anti-carbohydrate antibodies after PRBC exposure [2]: barely changed

CC(=O)N[C@H]1[C@H](O[C@H]2[C@H](O)[C@@H](O)[C@H](O[C@H]3[C@H](O)[C@@H](CO)OC(O)[C@@H]3NC(C)=O)O[C@@H]2C(=O)O)O[C@H](CO)[C@@H](O)[C@@H]1O[C@@H]1O[C@H](C(=O)O)[C@@H](O)[C@H](O)[C@H]1O (stereo partly drawn) [HA tetrasaccharide]
preformed IgM antibodies in human serum [3, 8]: preformed IgM antibodies | level of preformed antibodies in rats compared to humans [4]: lower level | production of IgM antibodies [4]: significant production of IgM antibodies | production of IgG antibodies [4]: significant production

GlcAβ1-3GlcNAcβ-Sp8 [Glycan 300]
IgG anti-HA disaccharide antibodies (mean±S.E.) [3, 9]: 0.37±0.08 | IgM anti-HA disaccharide antibodies (mean±S.E.) [3, 9]: 0.58±0.07 | IgG anti-HA disaccharide antibodies (mean±S.E.) [3, 10]: 0.27±0.05 | IgM anti-HA disaccharide antibodies (mean±S.E.) [3, 10]: 0.71±0.13 | IgG anti-HA disaccharide antibodies (mean±S.E.) [3, 11]: 0.27±0.03 | IgM anti-HA disaccharide antibodies (mean±S.E.) [3, 11]: 0.74±0.11 | preformed IgG antibodies in human serum [3, 8]: preformed IgG antibodies are only against HA disaccharide | preformed IgM antibodies in human serum [3, 8]: preformed IgM antibodies | cases with antibodies within the top 20 increases after PRBC exposure ([2]; PRBC exposure, 4 baboons): all the cases | change of anti-carbohydrate antibody reactivity at AHXR vs before transplantation ([2]; animal A14, severe rejection): More significant raises | change of anti-carbohydrate antibody reactivity at AHXR vs before transplantation ([2]; animal A15, no treatment, survival 4 days): decreased reactivity | augment of antibodies after PRBC exposure ([2]; animal C63, day 20, two weeks after end of PRBC injections): evidenced | level of antibodies after PRBC exposure ([2]; animal C63, day 30 after CyP treatment): higher level of anti-carbohydrate antibodies | augment of antibodies after PRBC exposure ([2]; animal C63, day two, during PRBC exposure): not present | change of anti-carbohydrate antibody reactivity at AHXR vs before transplantation ([2]; animal D10, mild rejection): moderated augment | change of anti-carbohydrate antibody reactivity at AHXR vs before transplantation ([2]; animal D12, severe rejection): More significant raises | change of anti-carbohydrate antibody reactivity at AHXR vs before transplantation [2, 7]: moderated augment | change of anti-carbohydrate antibodies after PRBC exposure [2]: higher level and increase | rank of average level of antibodies ([2]; baboons before exposure to PRBC): highest reactivity | rank of average level of antibodies ([2]; baboons before pig organ xenotransplantation): second highest reactivity | average±S.D. level of antibodies [2]: 18332±14201 net fluorescence units (NFU) | level of preformed antibodies in rats compared to humans [4]: lower level | production of IgM antibodies [4]: significant production of IgM antibodies | production of IgG antibodies [4]: significant production

Hyaluronidase
IgG antibody deposits in xenograft at AHXR, semiquantitative score ([5]; animal A14, AHXR III): complete disappearance | IgM antibody deposits in xenograft at AHXR, semiquantitative score ([5]; animal A14, AHXR III): notably reduced | IgG antibody deposits in xenograft at AHXR, semiquantitative score ([5]; animal A15, AHXR III): complete disappearance | IgM antibody deposits in xenograft at AHXR, semiquantitative score ([5]; animal A15, AHXR III): did not show any change | IgG antibody deposits in xenograft at AHXR, semiquantitative score ([5]; animal D10, AHXR I): complete disappearance | IgM antibody deposits in xenograft at AHXR, semiquantitative score ([5]; animal D10, AHXR I): disappeared | IgG antibody deposits in xenograft at AHXR, semiquantitative score ([5]; animal D12, AHXR III): remarkable reduction | IgM antibody deposits in xenograft at AHXR, semiquantitative score ([5]; animal D12, AHXR III): notably reduced | IgG antibody deposits in xenograft at AHXR, semiquantitative score ([5]; animal D17, AHXR III): remarkable reduction | IgM antibody deposits in xenograft at AHXR, semiquantitative score ([5]; animal D17, AHXR III): did not show any change | non-human primate IgG antibody binding to HMEC [6, 12]: augment | non-human primate IgM antibody binding to HMEC [6, 12]: not observed | HA expression on HMEC detected with hyaluronan-binding-protein (HABP) ([6]; hyaluronidase pre-treatment, compared to the baseline): reduction of HA expression

— patent publication US9719987B2, “Immunoadsorbent compositions comprising hyaluronic acid oligosaccharides” (FUNDACIO INSTITUT D'INVESTIGACIO BIOMEDICA DE BELLVITGE …, priority 2012, dated 2017)
